Measurements from patent US10130615B2, “Benzomorphan analogs and the use thereof” (priority 2014, dated 2018).
Where two headings read alike, the source gives them in different places.

Experiments:
μ-opioid receptor [1] = molecular target: T1, μ-opioid receptor (Homo sapiens, UniProt P35372); test: biochemical; parameters: purchased Perkin Elmer, Shelton, Conn; host or cells: HEK-293 or CHO; conditions: HEK-293 or CHO cells; for EC50: read-out: GTPγS μ EC50; for Emax: relative to DAMGO, read-out: GTPγS μ Emax
T1 sequence (P35372 whole entry, species assumed): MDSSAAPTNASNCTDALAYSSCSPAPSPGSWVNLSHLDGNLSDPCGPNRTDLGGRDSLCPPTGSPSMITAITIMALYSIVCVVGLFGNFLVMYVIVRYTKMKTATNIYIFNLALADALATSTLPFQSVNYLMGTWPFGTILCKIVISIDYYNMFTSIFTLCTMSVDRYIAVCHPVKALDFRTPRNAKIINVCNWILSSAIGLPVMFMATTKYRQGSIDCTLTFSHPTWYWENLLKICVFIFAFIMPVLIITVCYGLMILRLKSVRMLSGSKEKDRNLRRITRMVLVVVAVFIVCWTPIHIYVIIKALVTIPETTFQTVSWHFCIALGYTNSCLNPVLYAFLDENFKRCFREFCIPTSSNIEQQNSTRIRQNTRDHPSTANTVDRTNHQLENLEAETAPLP

κ-opioid receptor [2] = molecular target: T2, κ-opioid receptor (Homo sapiens, UniProt P41145); test: κ-opioid receptor radioligand binding assay ([3H]-U69,593); parameters: expressed in transfected cells; host or cells: HEK-293
T2 sequence (P41145 whole entry): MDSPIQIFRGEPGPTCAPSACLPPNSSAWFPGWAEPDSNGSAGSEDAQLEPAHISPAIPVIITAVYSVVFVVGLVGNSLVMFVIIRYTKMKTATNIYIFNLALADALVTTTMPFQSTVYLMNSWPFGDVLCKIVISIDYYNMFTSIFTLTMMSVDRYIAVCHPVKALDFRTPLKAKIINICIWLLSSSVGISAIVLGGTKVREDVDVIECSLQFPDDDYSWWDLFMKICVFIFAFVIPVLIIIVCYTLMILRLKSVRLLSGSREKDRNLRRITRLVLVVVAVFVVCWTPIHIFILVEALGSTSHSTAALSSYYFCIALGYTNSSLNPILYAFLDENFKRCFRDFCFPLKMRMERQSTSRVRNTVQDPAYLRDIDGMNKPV
Method: κ-opioid Receptor Binding Assay Procedures: Membranes from recombinant HEK-293 cells expressing the human κ opioid receptor (κ) (cloned in house) were prepared by lysing cells in ice cold hypotonic buffer (2.5 mM MgCl2, 50 mM HEPES, pH 7.4) (10 mL/10 cm dish) followed by homogenization with a tissue grinder/Teflon pestle. Membranes were collected by centrifugation at 30,000×g for 15 min at 4° C. and pellets were resuspended in hypotonic buffer to a final concentration of 1-3 mg/mL. Protein concentrations were determined using the BioRad protein assay reagent with bovine serum albumen as standard. Aliquots of κ receptor membranes were stored at −80° C.
Radioligand dose displacement assays used 0.4 nM [^3H]-U69,593 (GE Healthcare, Piscataway, N.J.; 40 Ci/mmole) with 15 μg membrane protein (recombinant κ opioid receptor expressed in HEK 293 cells; in-house prep) in a final volume of 200 μl binding buffer (5% DMSO, 50 mM Trizma base, pH 7.4). Non-specific binding was determined in the presence of 10 μM unlabeled naloxone or U69,593. All reactions were performed in 96-well polypropylene plates for 1 hr at a temperature of about 25° C.

κ-opioid receptor [3] = molecular target: T2, κ-opioid receptor; test: κ-opioid receptor β-Arr2 activity response, U2OS cells; format: cell-based; parameters: expressed in transfected cells; host or cells: U-2 OS
μ-opioid receptor [4] = molecular target: T1, μ-opioid receptor; test: cell-based; parameters: purchased Perkin Elmer, Shelton, Conn; conditions: U2OS cells; for EC50: read-out: β-Arr2 μ EC50; for Emax: read-out: β-Arr2 μ Emax
κ-opioid receptor [5] = molecular target: T2, κ-opioid receptor; test: κ-opioid receptor [35S]GTPγS functional assay, HEK-293 or CHO cells; format: biochemical; parameters: expressed in transfected cells; host or cells: HEK-293; conditions: for Emax: relative to U69,593
Method: (§1) Plates were incubated for 30 min at a temperature of about 25° C. with shaking.

κ-opioid receptor [6] = molecular target: T2, κ-opioid receptor; test: κ-opioid receptor GTPγS functional assay, U2OS cells; format: biochemical; parameters: expressed in transfected cells; host or cells: U-2 OS; conditions: U2OS cells; for EC50: read-out: GTPγS κ EC50
Method: as §1

μ-opioid receptor [7] = molecular target: T1, μ-opioid receptor; test: μ-opioid receptor GTPγS functional assay, U2OS cells; conditions: for Emax: read-out: GTPγS μ Emax
[8] = HEK-293 or CHO cells, read-out: Ki (nM) Opioid Receptor κ
[9] = U2OS cells, read-out: β-Arr2 κ EC50
[10] = HEK-293 or CHO cells, read-out: GTPγS κ EC50

Row | SMILES | EC50 (μ-opioid receptor [1]) | Emax (μ-opioid receptor [1]) | Ki (κ-opioid receptor [2]; [8]) | Emax (κ-opioid receptor [3]; U2OS cells) | EC50 (κ-opioid receptor [3]; [9]) | EC50 (μ-opioid receptor [4]) | Emax (μ-opioid receptor [4]) | EC50 (κ-opioid receptor [5]; [10]) | Emax (κ-opioid receptor [5]; HEK-293 or CHO cells) | Emax (κ-opioid receptor [6]) | EC50 (κ-opioid receptor [6]) | EC50 (μ-opioid receptor [7]) | Emax (μ-opioid receptor [7]) | Ki (κ-opioid receptor [2]) | EC50 (κ-opioid receptor [3]) | EC50 (κ-opioid receptor [5])
1 | C[C@H]1[C@H]2Cc3ccc(O)cc3[C@]1(CCN1CCS(=O)(=O)CC1)CCN2C [Compound 10, 4-(2-((2R,6R,11R)-8-hydroxy-3,11-dimethyl-2,3,4,5-tetrahydro-2,6-methanobenzo[d]azocin-6(1H)-yl)-ethyl)thiomorpholine 1,1-dioxide] | 0.133 ± 0.0161 µM | 51 ± 1.08% | 77 ± 2.02 nM | 17.2 ± 0.97% | 4.66 ± 1.72 µM | 0.129 ± 0.0344 µM | 2.83 ± 0.27% | 0.516 ± 0.0339 µM | 26.6 ± 1.52% |  |  |  |  |  |  | 
2 | COc1ccc2c(c1)[C@]1(CCNC(=O)[C@H](C)NC(C)=O)CCN(CC3CC3)[C@H](C2)[C@@H]1C [Compound 4, (S)-2-acetamido-N-(2-((2R,6R,11R)-3-(cyclopropylmethyl)-8-methoxy-11-methyl-2,3,4,5-tetrahydro-2,6-methanobenzo[d]azocin-6(1H)-yl)ethyl)propanamide] |  | 0% |  | 59.3 ± 4.06% | 0.403 ± 0.0599 µM |  | 1.3 ± 0.77% |  |  | 97 ± 5.29% | 0.0382 ± 0.00489 µM | 0.522 ± 0.0601 µM | 80.2 ± 3.3% |  |  | 
3 | C[C@H]1[C@H]2Cc3ccc(O)cc3[C@]1(CC(=O)N1CCC(N(C3CC3)S(=O)(=O)c3ccc(Cl)cc3)CC1)CCN2C [Compound 61, 4-chloro-N-cyclopropyl-N-(1-(2-((2R,6S,11R)-8-hydroxy-3,11-dimethyl-2,3,4,5-tetrahydro-2,6-methano-benzo[d]azocin-6(1H)-yl)acetyl)-piperidin-4-yl)benzenesulfonamide] | 0.283 ± 0.0288 µM | 35.7 ± 1.2% |  | 14.7 ± 1.33% | 7.29 ± 2.06 µM | 0.649 ± 0.18 µM | 7.67 ± 0.73% |  |  | 42.7 ± 2.03% | 0.0454 ± 0.00669 µM | 0.146 ± 0.0248 µM | 78.7 ± 0.33% |  |  | 
4 | C[C@H]1[C@H]2Cc3ccc(O)cc3[C@]1(CCOc1cncc(C(=O)O)c1)CCN2C [Compound 52, 5-(2-((2R,6S,11R)-8-hydroxy-3,11-dimethyl-2,3,4,5-tetrahydro-2,6-methanobenzo[d]azocin-6(1H)-yl)ethoxy)nicotinic acid] | 0.32 ± 0.0469 µM | 35 ± 1.53% |  | 1% |  | 0.403 ± 0.11 µM | 6.77 ± 1.13% |  |  | 99 ± 1.73% | 0.434 ± 0.0391 µM | 0.0681 ± 0.00657 µM | 89 ± 4% |  |  | 
5 | C[C@H]1[C@H]2Cc3ccc(O)cc3[C@]1(CCNC(=O)[C@@H]1CCCCN1)CCN2CC1CC1 [Compound 11, (S)-N-(2-((2R,6R,11R)-3-(cyclopropyl-methyl)-8-hydroxy-11-methyl-2,3,4,5-tetrahydro-2,6-methanobenzo[d]azocin-6(1H)-yl)ethyl)piperidine-2-carboxamide] | 0.0183 ± 0.00558 µM | 23 ± 1.38% | 0.17 ± 0.044 nM |  |  |  | -1.5% | 0.00104 ± 5.9e-05 µM | 84 ± 3.63% |  |  |  |  |  |  | 
6 | COc1ccc2c(c1)[C@]1(CCNC(=O)[C@@H]3CCCN3C(C)=O)CCN(CC3CC3)[C@H](C2)[C@@H]1C [Compound 5, (S)-1-acetyl-N-(2-((2R,6R,11R)-3-(cyclopropylmethyl)-8-methoxy-11-methyl-2,3,4,5-tetrahydro-2,6-methanobenzo[d]azocin-6(1H)-yl)ethyl)pyrrolidine-2-carboxamide] | 0.468 ± 0.122 µM | 16.3 ± 1.44% |  | 58.7 ± 5.93% | 0.407 ± 0.0655 µM |  | -1% |  |  | 100 ± 4.58% | 0.0633 ± 0.0102 µM | 0.629 ± 0.0168 µM | 75.2 ± 1.55% |  |  | 
7 | C[C@H]1[C@H]2Cc3ccc(O)cc3[C@]1(CCNCCc1ccc(S(N)(=O)=O)cc1)CCN2C [Compound 59, 4-(2-((2-((2R,6R,11R)-8-hydroxy-3,11-dimethyl-2,3,4,5-tetrahydro-2,6-methanobenzo[d]azocin-6(1H)-yl)ethyl)amino)ethyl)benzenesulfonamide] | 0.369 ± 0.0502 µM | 38 ± 4.18% |  | 1% |  |  | -1% |  |  | 112 ± 7.54% | 0.0612 ± 0.01 µM | 0.0856 ± 0.00967 µM | 74 ± 3.51% |  |  | 
8 | C[C@H]1[C@H]2Cc3ccc(O)cc3[C@]1(CCNS(C)(=O)=O)CCN2C [Compound 13, N-(2-((2R,6S,11R)-8-hydroxy-3,11-dimethyl-2,3,4,5-tetrahydro-2,6-methanobenzo[d]azocin-6(1H)-yl)ethyl)methanesulfonamide] | 0.285 ± 0.072 µM | 25 ± 1.53% | 20.5 ± 3.21 nM |  |  |  | -1% | 0.166 ± 0.00148 µM | 30.8 ± 0.19% |  |  |  |  |  |  | 
9 | C[C@H]1[C@H]2Cc3ccc(O)cc3[C@]1(CCO)CCN2C [Compound 12, (2R,6S,11R)-6-(2-hydroxyethyl)-3,11-dimethyl-1,2,3,4,5,6-hexahydro-2,6-methanobenzo[d]azocin-8-ol] | 0.237 ± 0.0362 µM | 58.2 ± 1.65% |  | 12.7 ± 1.57% |  | 0.386 ± 0.0895 µM | 8.83 ± 0.44% |  | 37.1 ± 1.43% |  |  |  |  | 22.4 ± 3.57 nM | 5.52 ± 4.65 µM | 0.344 ± 0.0326 µM
10 | COc1ccc2c(c1)[C@]1(CCOCc3ccccc3)CCN(C)[C@H](C2)[C@@H]1C [Compound 48, (2R,6S,11R)-6-(2-(benzyloxy)ethyl)-8-methoxy-3,11-dimethyl-1,2,3,4,5,6-hexahydro-2,6-methanobenzo[d]azocine] | 2.24 ± 0.19 µM | 53.1 ± 4.36% |  | 64.3 ± 9.39% | 16.3 ± 7.6 µM | 4.38 ± 0.627 µM | 27.7 ± 0.88% |  |  | 108 ± 4.51% | 0.104 ± 0.0158 µM | 0.313 ± 0.028 µM | 97 ± 2.08% |  |  | 
11 | COc1ccc2c(c1)[C@@]1(CCO)CCN(CC3CC3)[C@@H](C2)[C@H]1C [Compound 46, 2-((2S,6R,11S)-3-(cyclopropylmethyl)-8-methoxy-11-methyl-2,3,4,5-tetrahydro-2,6-methanobenzo[d]azocin-6(1H)-yl)ethan-1-ol] |  |  |  |  |  |  |  |  |  |  |  |  |  | 3580 ± 457 nM |  | 
12 | C[C@H]1[C@H]2Cc3ccc(O)cc3[C@]1(CCN1CCC(N(C3CC3)S(=O)(=O)c3ccc(Cl)cc3)CC1)CCN2C [Compound 58, 4-chloro-N-cyclopropyl-N-(1-(2-((2R,6R,11R)-8-hydroxy-3,11-dimethyl-2,3,4,5-tetrahydro-2,6-methanobenzo-[d]azocin-6(1H)-yl)ethyl)piperidin-4-yl)-benzenesulfonamide] | 0.179 ± 0.0127 µM | 53.3 ± 2.96% |  | 80.3 ± 7.75% | 8.9 ± 1.62 µM | 2.14 ± 0.586 µM | 77.7 ± 7.06% |  |  | 60 ± 1% | 0.011 ± 0.00159 µM | 0.0203 ± 0.00182 µM | 98 ± 2% |  |  | 
13 | C[C@H]1[C@H]2Cc3ccc(O)cc3[C@]1(CCNC(=O)Nc1ccc(C(=O)O)cc1)CCN2CC1CC1 [Compound 2, 4-(3-(2-((2R,6R,11R)-3-(cyclopropyl-methyl)-8-hydroxy-11-methyl-2,3,4,5-tetrahydro-2,6-methanobenzo[d]azocin-6(1H)-yl)ethyl)ureido)benzoic acid] |  |  | 7.08 ± 0.71 nM | 28.7 ± 4.67% | 0.0084 ± 0.00186 µM |  | -1.5% |  |  | 106 ± 2.52% | 0.00411 ± 0.00025 µM | 0.00189 ± 0.00018 µM | 72.5 ± 1.5% |  |  | 
14 | CCOC(=O)c1ccc(NC(=O)NCC[C@]23CCN(CC4CC4)[C@H](Cc4ccc(OC)cc42)[C@@H]3C)cc1 [Compound 1, Ethyl 4-(3-(2-((2R,6R,11R)-3-(cyclopropylmethyl)-8-methoxy-11-methyl-2,3,4,5-tetrahydro-2,6-methanobenzo[d]azocin-6(1H)-yl)ethyl)ureido)benzoate] | 0.00421 ± 0.00067 µM | 27.8 ± 0.85% |  | 44.2 ± 4.05% | 0.0638 ± 0.00723 µM |  | 25.5% | 0.0334 ± 0.00226 µM | 78.3 ± 0.91% | 103 ± 3.53% | 0.00579 ± 0.00056 µM | 0.164 ± 0.0316 µM | 62 ± 2.08% |  |  | 
